Experimental data as given in publication PMC7311426, “An amphipathic peptide with antibiotic activity against multidrug-resistant Gram-negative bacteria” (Nature Communications, 2020).
Values after ≈ are worked out from the molar mass of the structure shown.

Tested on: P. aeruginosa
Experiment: microbe, parasite or virus in culture
Summary of the method: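 MICs were scored by eye after 18-20 h static incubation at 37 °C, with bacteria at 5 × 10^5 CFU mL^−1 in MHB. Peptides were serially diluted 2-fold over 12 points, top 128 or 64 μg mL^−1. CAMHB (CLSI) and 1% agarose-MHB variants were also run, at least six replicates.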

NC[C@H]1O[C@H](O[C@H]2[C@H](O)[C@@H](O[C@H]3O[C@H](CO)[C@@H](O)[C@H](N)[C@H]3O)[C@H](N)C[C@@H]2N)[C@H](N)C[C@@H]1O [TOB]
MIC, broth microdilution (P. aeruginosa ATCC 27853 spontaneous mutant, AA139 selection 8X, plate 1, colony 5, drug-free passage 5): 0.5, 0.5 µg/mL
MIC, broth microdilution (P. aeruginosa UNT 138-1 parent strain not exposed to drug): 0.5 µg/mL (≈ 1.07 µM)
MIC, broth microdilution (P. aeruginosa UNT 138-1 spontaneous mutant, AA139 selection 4X, plate 1, colony 1, drug-free passage 1): 1, 1 µg/mL
MIC, broth microdilution (P. aeruginosa UNT 138-1 spontaneous mutant, AA139 selection 4X, plate 1, colony 1, drug-free passage 5): 1, 1 µg/mL
MIC, broth microdilution (P. aeruginosa UNT 138-1 spontaneous mutant, AA139 selection 4X, plate 1, colony 2, drug-free passage 1): 0.5, 0.5 µg/mL
MIC, broth microdilution (P. aeruginosa UNT 138-1 spontaneous mutant, AA139 selection 4X, plate 1, colony 2, drug-free passage 5): 0.5, 0.5 µg/mL
MIC, broth microdilution (P. aeruginosa UNT 138-1 spontaneous mutant, AA139 selection 4X, plate 1, colony 3, drug-free passage 1): 1 µg/mL (≈ 2.14 µM)
MIC, broth microdilution (P. aeruginosa UNT 138-1 spontaneous mutant, AA139 selection 4X, plate 1, colony 3, drug-free passage 5): 0.5 µg/mL (≈ 1.07 µM)
MIC, broth microdilution (P. aeruginosa UNT 138-1 spontaneous mutant, AA139 selection 4X, plate 1, colony 4, drug-free passage 1): 0.5, 0.5 µg/mL
MIC, broth microdilution (P. aeruginosa UNT 138-1 spontaneous mutant, AA139 selection 4X, plate 1, colony 4, drug-free passage 5): 0.5, 0.5 µg/mL
MIC, broth microdilution (P. aeruginosa UNT 138-1 spontaneous mutant, AA139 selection 4X, plate 1, colony 5, drug-free passage 1): 1 µg/mL (≈ 2.14 µM)
MIC, broth microdilution (P. aeruginosa UNT 138-1 spontaneous mutant, AA139 selection 4X, plate 1, colony 5, drug-free passage 5): 0.5 µg/mL (≈ 1.07 µM)
MIC, broth microdilution (P. aeruginosa UNT 138-1 spontaneous mutant, AA139 selection 4X, plate 1, colony 6, drug-free passage 1): 1 µg/mL (≈ 2.14 µM)
MIC, broth microdilution (P. aeruginosa UNT 138-1 spontaneous mutant, AA139 selection 4X, plate 1, colony 6, drug-free passage 5): 0.5 µg/mL (≈ 1.07 µM)
MIC, broth microdilution (P. aeruginosa UNT 138-1 spontaneous mutant, AA139 selection 4X, plate 1, colony 7, drug-free passage 1): 0.5, 0.5 µg/mL
MIC, broth microdilution (P. aeruginosa UNT 138-1 spontaneous mutant, AA139 selection 4X, plate 1, colony 7, drug-free passage 5): 0.5, 0.5 µg/mL
MIC, broth microdilution (P. aeruginosa UNT 138-1 spontaneous mutant, AA139 selection 4X, plate 2, colony 1, drug-free passage 1): 1, 1 µg/mL
MIC, broth microdilution (P. aeruginosa UNT 138-1 spontaneous mutant, AA139 selection 4X, plate 2, colony 1, drug-free passage 5): 1, 1 µg/mL
MIC, broth microdilution (P. aeruginosa UNT 138-1 spontaneous mutant, AA139 selection 4X, plate 2, colony 2, drug-free passage 1): 0.5, 0.5 µg/mL
MIC, broth microdilution (P. aeruginosa UNT 138-1 spontaneous mutant, AA139 selection 4X, plate 2, colony 2, drug-free passage 5): 0.5, 0.5 µg/mL
MIC, broth microdilution (P. aeruginosa UNT 138-1 spontaneous mutant, AA139 selection 4X, plate 2, colony 3, drug-free passage 1): 1 µg/mL (≈ 2.14 µM)
MIC, broth microdilution (P. aeruginosa UNT 138-1 spontaneous mutant, AA139 selection 4X, plate 2, colony 3, drug-free passage 5): 0.5 µg/mL (≈ 1.07 µM)
MIC, broth microdilution (P. aeruginosa UNT 138-1 spontaneous mutant, AA139 selection 4X, plate 2, colony 4, drug-free passage 1): 0.5, 0.5 µg/mL
MIC, broth microdilution (P. aeruginosa UNT 138-1 spontaneous mutant, AA139 selection 4X, plate 2, colony 4, drug-free passage 5): 0.5, 0.5 µg/mL
MIC, broth microdilution (P. aeruginosa UNT 138-1 spontaneous mutant, AA139 selection 4X, plate 2, colony 5, drug-free passage 1): 1 µg/mL (≈ 2.14 µM)
MIC, broth microdilution (P. aeruginosa UNT 138-1 spontaneous mutant, AA139 selection 4X, plate 2, colony 5, drug-free passage 5): 0.5 µg/mL (≈ 1.07 µM)
MIC, broth microdilution (P. aeruginosa UNT 138-1 spontaneous mutant, AA139 selection 4X, plate 2, colony 6, drug-free passage 1): 0.5, 0.5 µg/mL
MIC, broth microdilution (P. aeruginosa UNT 138-1 spontaneous mutant, AA139 selection 4X, plate 2, colony 6, drug-free passage 5): 0.5, 0.5 µg/mL
MIC, broth microdilution (P. aeruginosa UNT 138-1 spontaneous mutant, AA139 selection 4X, plate 2, colony 7, drug-free passage 1): 0.5, 0.5 µg/mL
MIC, broth microdilution (P. aeruginosa UNT 138-1 spontaneous mutant, AA139 selection 4X, plate 2, colony 7, drug-free passage 5): 0.5, 0.5 µg/mL
MIC, broth microdilution (P. aeruginosa UNT 138-1 spontaneous mutant, AA139 selection 8X, plate 1, colony 1, drug-free passage 1): 0.5 µg/mL (≈ 1.07 µM)
MIC, broth microdilution (P. aeruginosa UNT 138-1 spontaneous mutant, AA139 selection 8X, plate 1, colony 1, drug-free passage 5): 2 µg/mL (≈ 4.28 µM)
MIC, broth microdilution (P. aeruginosa UNT 138-1 spontaneous mutant, AA139 selection 8X, plate 1, colony 2, drug-free passage 1): 1 µg/mL (≈ 2.14 µM)
MIC, broth microdilution (P. aeruginosa UNT 138-1 spontaneous mutant, AA139 selection 8X, plate 1, colony 2, drug-free passage 5): 0.5 µg/mL (≈ 1.07 µM)
MIC, broth microdilution (P. aeruginosa UNT 138-1 spontaneous mutant, AA139 selection 8X, plate 1, colony 3, drug-free passage 1): 0.5, 0.5 µg/mL
MIC, broth microdilution (P. aeruginosa UNT 138-1 spontaneous mutant, AA139 selection 8X, plate 1, colony 3, drug-free passage 5): 0.5, 0.5 µg/mL
MIC, broth microdilution (P. aeruginosa UNT 138-1 spontaneous mutant, AA139 selection 8X, plate 1, colony 4, drug-free passage 1): 1 µg/mL (≈ 2.14 µM)
MIC, broth microdilution (P. aeruginosa UNT 138-1 spontaneous mutant, AA139 selection 8X, plate 1, colony 4, drug-free passage 5): 0.5 µg/mL (≈ 1.07 µM)
MIC, broth microdilution (P. aeruginosa UNT 138-1 spontaneous mutant, AA139 selection 8X, plate 1, colony 5, drug-free passage 1): 0.5, 0.5 µg/mL
MIC, broth microdilution (P. aeruginosa UNT 138-1 spontaneous mutant, AA139 selection 8X, plate 1, colony 5, drug-free passage 5): 0.5, 0.5 µg/mL
MIC, broth microdilution (P. aeruginosa UNT 138-1 spontaneous mutant, AA139 selection 8X, plate 2, colony 1, drug-free passage 1): 0.5, 0.5 µg/mL
MIC, broth microdilution (P. aeruginosa UNT 138-1 spontaneous mutant, AA139 selection 8X, plate 2, colony 1, drug-free passage 5): 0.5, 0.5 µg/mL
